Results on five compounds are retold here after PMC11053687, “Synthesis and Pharmacological Characterization of New Photocaged Agonists for Histamine H3 and H4 Receptors” (Pharmaceuticals, 2024).

The target in series [1] is T1, human H4R (Homo sapiens, UniProt Q9H3N8).
T1 construct: expressed in transfected cells; host or cells: HEK293T (transient, PEI); membranes
As to the kind of experiment: [3H]histamine competition binding, membranes of HEK293T cells transiently expressing H4R. Here is the method: (§1) Both GPCRs were transiently expressed in HEK293T cells.
(§2) Membranes were collected from HEK293T cells transiently transfected with H3R or H4R by PEI method. In brief, 2 million HEK293T cells were seeded into a 10 cm dish one day before transfection. The next day, the cells were transfected with 2.5 μg cDNA encoding H3R (GenBank accession number AF140538) or H4R (GenBank accession number AY136745) supplemented with 2.5 μg empty pcDEF3 [45] plasmid using 20 μg PEI. Two days after transfection, the transfected HEK293T cells were detached using ice-cold PBS, and the membrane pellets were subsequently collected by centrifuging at 1932× g at 4 °C for 10 min.
For competition binding assays, the tested compounds were pre-irradiated to reach the uncaged state. […] After drying for 30 min at 55 °C, the radioactivity remaining on the filters was quantified using a Microbeta Wallac Trilux scintillation counter, following the addition of scintillation liquid with a two-hour delay.
All data are shown as mean ± S.D. from three individual experiments performed in triplicate. Figures were generated and data analyzed by Prism 9. […] In FRET-EPAC assays, the ligand-induced cAMP inhibition was quantified by FRET ratios, dividing the FRET signal at 530 nm by the signal at 480 nm. […]

Series [2] is described as follows: Nephelometry (aqueous solubility). The series is classed as physicochemical. The note with it: 50 mM Tris-HCl buffer with 1% DMSO, pH 7.4, aqueous buffer, kinetic from dmso stock, in the dark, read-out: aqueous solubility (limit).
Series [3] in a line: UV-Vis absorption in Tris-HCl buffer. It is filed as physicochemical. The conditions noted are these: Tris-HCl buffer (50 mM, pH 7.4). On the procedure: Next, the photochemical properties of the caged VUF25657 and VUF25678 were investigated. […] Based on the photochemical stability results in Figure S2, photo characterizations of VUF25657 and VUF25678 were performed under red LED light. Due to the low absorbance of immepip and 4-methylhistamine at 230 and 254 nm, a quantitative analysis method based on mass (MS) detection was employed. First, calibration curves of monitored compounds with the corresponding reference compound of the same molecular weight were built (Figure S3). Then, after illumination, the reference compounds were added to LCMS samples as internal standards. Based on the MS signal areas, the concentrations of caged compounds and parent compounds could be monitored. In Tris-HCl buffer (50 mM, pH 7.4), the absorption maximum (λmax) was determined to be 551 nm for VUF25657 (Figure 1A) and 546 nm for VUF25678 (Figure S4A). […] After 180 s of illumination, the concentration of immepip reached 0.92 μM, amounting to 29% uncaging efficiency. […]
Figure 1 Photo-uncaging followed by UV–Vis (ultraviolet-visible) and LC–MS analysis. (A) VUF25657 (3.2 μM) was illuminated under 560 nm in Tris-HCl buffer (50 mM, pH 7.4)/1% DMSO at room temperature and a UV–Vis spectrum was measured at intervals. […]
measured at intervals; (B) […] (3.2 μM) was illuminated under green LED light in Tris-HCl buffer (50 […]

Series [4] is described as follows: Photo-uncaging at 560 nm followed by LC-MS with internal standard. The series is classed as physicochemical. The conditions noted are these: VUF25657 3.2 μM in Tris-HCl buffer. Here is the method: Next, the photochemical properties of the caged VUF25657 and VUF25678 were investigated. […] Based on the photochemical stability results in Figure S2, photo characterizations of VUF25657 and VUF25678 were performed under red LED light. Due to the low absorbance of immepip and 4-methylhistamine at 230 and 254 nm, a quantitative analysis method based on mass (MS) detection was employed. First, calibration curves of monitored compounds with the corresponding reference compound of the same molecular weight were built (Figure S3). Then, after illumination, the reference compounds were added to LCMS samples as internal standards. Based on the MS signal areas, the concentrations of caged compounds and parent compounds could be monitored. In Tris-HCl buffer (50 mM, pH 7.4), the absorption maximum (λmax) was determined to be 551 nm for VUF25657 (Figure 1A) and 546 nm for VUF25678 (Figure S4A). […] After 180 s of illumination, the concentration of immepip reached 0.92 μM, amounting to 29% uncaging efficiency. Further illumination led to a decreased immepip concentration (for example, 0.53 μM at 20 min). One potential explanation for this could be the reaction of immepip with side products or intermediates formed during the uncaging process.
Figure 1 Photo-uncaging followed by UV–Vis (ultraviolet-visible) and LC–MS analysis. (A) VUF25657 (3.2 μM) was illuminated under 560 nm in Tris-HCl buffer (50 mM, pH 7.4)/1% DMSO at room temperature and a UV–Vis spectrum was measured at intervals. Only the 350–750 nm region is shown; (B) VUF25657 (3.2 μM) was illuminated under green LED light in Tris-HCl buffer (50 mM, pH 7.4)/1% DMSO at 37 °C and LC–MS analysis was performed at different time points using an internal standard.

The target of series [5] is T2, H3R (Homo sapiens, UniProt Q9Y5N1). In words: [3H]NAMH competition binding, membranes of HEK293T cells transiently expressing H3R. Also noted: expressed in transfected cells; host or cells: HEK293T (transient, PEI); membranes. On the procedure:
as §1, §2
For competition binding assays, the tested compounds were pre-irradiated to reach the uncaged state. In brief, 0.3 mM stock of photocaged ligand (dissolved in DMSO) was divided into two samples, one of which was subsequently diluted in Tris-HCl buffer (50 mM, pH 7.4) to 3 μM and then irradiated by 560 nm to reach the uncaged state, as confirmed by LC–MS, and the other sample was kept in dark to retain its caged state. The prepared membrane pellets expressing H3R or H4R were resuspended in Tris-HCl buffer (50 mM, pH 7.4) and disrupted by 5 s sonication to make membrane suspension. Next, all the following handling was performed under near-infrared light. […] Following one hour of incubation with continuous shaking at 225 rpm at 25 °C, the reaction was terminated by transferring the mixture to GF/C filter plates that were pre-soaked with a solution containing 0.5% PEI and washed with cold Tris-HCl buffer. After drying for 30 min at 55 °C, the radioactivity remaining on the filters was quantified using a Microbeta Wallac Trilux scintillation counter, following the addition of scintillation liquid with a two-hour delay.
(§3) All data are shown as mean ± S.D. from three individual experiments performed in triplicate. Figures were generated and data analyzed by Prism 9. In radioligand binding assays, the competition binding curves were fitted by ‘one-site—Fit Ki’ to obtain the equilibrium dissociation constants of unlabeled ligands (Ki) by Cheng-Prusoff equation [46]. In FRET-EPAC assays, the ligand-induced cAMP inhibition was quantified by FRET ratios, dividing the FRET signal at 530 nm by the signal at 480 nm. The response was represented as ΔFRET ratios, obtained by the analysis of ‘Fractional difference: (Value—Baseline)/Baseline’. Then the concentration–response curves were fitted using the model: ‘log(agonist) vs. response (three parameters)’ to obtain potency (pEC50).
Figure 2 Displacement binding curves of parent, caged, and uncaged ligands for H3R (A) and H4R (B). […] Caged ligands were either kept in dark or pre-irradiated at 560 nm for 3 min for VUF25657 and 5 min for VUF25678 to achieve the uncaged state. Data shown are mean ± S.D. from three or four independent experiments, each performed in triplicate.

The target of series [6] is T2, H3R. As to the kind of experiment: cAMP inhibition by FRET-EPAC biosensor in HEK293-EPAC cells stably expressing H3R. The series is classed as cell-based. Also noted: expressed in transfected cells; host or cells: HEK293 cells stably expressing EPAC-cAMP FRET biosensor and H3R. The conditions noted are these: for EC50: inhibition of cAMP induced by 10 nM isoprenaline, FRET after 20 min. On the procedure: H3R primarily couples to Gαi protein, which upon activation causes a decrease in intracellular cAMP levels via the inhibition of adenylate cyclase. Therefore, the HEK-EPAC cells were pre-treated with 10 nM of the beta2 adrenergic receptor (β2AR) agonist isoprenaline before H3R stimulation to enhance the basal intracellular cAMP levels via β2AR-Gαs activation. As anticipated, the H3R selective agonist immepip reduced the isoprenaline-induced cAMP accumulation, as detected by an increased FRET (fluorescence resonance energy transfer) signal in the EPAC (exchange protein directly activated by cAMP) biosensor (Figure 3A).
HEK293T cells (ATTC, CRL-1573) were cultured in DMEM supplemented with 10% FBS and 1% P/S in a humidified incubator at 37 °C with 5% CO2. The HEK293 cell line stably expressing an EPAC-cAMP FRET biosensor was kindly provided by Dr. M. Zimmermann (Interax Biotech, Basal, Switzerland). HEK293-EPAC cells stably co-expressing the H3R (GenBank accession number NM_007232.3) were generated as previously described.
EPAC-H3R cells were seeded into black 96-well plates with 50,000 cells per well one day before the experiment. The next day, the culture medium was replaced with HBSS. Subsequently, 10 nM isoprenaline (dissolved in HBSS supplemented with 20 mM thiourea) was added for 10 min incubation to elevate basal cAMP levels. Fluorescence resonance energy transfer (FRET) measurements were recorded by CLARIOstar plate reader in real-time or at 20 min after ligand stimulation.
as §3
Figure 3 Optical modulation of VUF25657-induced cAMP inhibition in EPAC-H3R cells. Real time modulation of isoprenaline-induced cAMP acumination in HEK-EPAC cells by 1 μM immepip (A). Modulation of isoprenaline-induced cAMP acumination in HEK-EPAC cells by increasing concentrations of VUF25657 (B). HEK-EPAC cells stably expressing H3R were pre-stimulated with 10 nM isoprenaline for 10 min before ligand addition. The FRET signal of the EPAC-sensor was measured after 20 min treatment of indicated ligands. VUF25657 was either kept in dark or pre-irradiated at 560 nm for 3 min to release the BODIPY cage. Data are mean ± S.D. from four independent experiments performed, each in triplicate.

In series [7] the target is T2, H3R. Also noted: expressed in transfected cells; host or cells: HEK293 cells stably expressing EPAC-cAMP FRET biosensor and H3R; method as in PMID 30249614. The conditions noted are these: saturation binding of the radioligand to H3R; cited from earlier work.
Where [8] appears, read: after 180 s of illumination at 560 nm.

Values after ≈ are worked out from the molar mass of the structure shown. Where two headings read alike, the source gives them in different places. Where only a bound is given, the exact number is not on record here.

By solubility is commonly meant the dissolved amount per volume that the medium holds. By melting point is commonly meant the temperature of the solid-liquid transition. What is called Kd is the free concentration of one partner at which half of the binding sites on the other are occupied at equilibrium, for simple one-to-one binding.

T2 sequence (Q9Y5N1 whole entry): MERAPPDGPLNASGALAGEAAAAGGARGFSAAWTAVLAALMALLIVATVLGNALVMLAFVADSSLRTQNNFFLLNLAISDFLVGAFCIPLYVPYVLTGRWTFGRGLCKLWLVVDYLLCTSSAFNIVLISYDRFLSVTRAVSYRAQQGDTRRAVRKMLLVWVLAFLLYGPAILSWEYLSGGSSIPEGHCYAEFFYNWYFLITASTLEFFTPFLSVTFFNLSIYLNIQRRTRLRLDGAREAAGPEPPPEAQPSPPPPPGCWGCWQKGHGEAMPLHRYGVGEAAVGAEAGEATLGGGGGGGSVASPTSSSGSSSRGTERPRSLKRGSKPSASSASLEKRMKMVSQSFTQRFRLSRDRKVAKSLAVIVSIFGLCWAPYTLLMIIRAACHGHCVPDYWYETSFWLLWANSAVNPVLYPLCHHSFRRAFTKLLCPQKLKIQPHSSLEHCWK
T1 sequence (Q9H3N8 whole entry): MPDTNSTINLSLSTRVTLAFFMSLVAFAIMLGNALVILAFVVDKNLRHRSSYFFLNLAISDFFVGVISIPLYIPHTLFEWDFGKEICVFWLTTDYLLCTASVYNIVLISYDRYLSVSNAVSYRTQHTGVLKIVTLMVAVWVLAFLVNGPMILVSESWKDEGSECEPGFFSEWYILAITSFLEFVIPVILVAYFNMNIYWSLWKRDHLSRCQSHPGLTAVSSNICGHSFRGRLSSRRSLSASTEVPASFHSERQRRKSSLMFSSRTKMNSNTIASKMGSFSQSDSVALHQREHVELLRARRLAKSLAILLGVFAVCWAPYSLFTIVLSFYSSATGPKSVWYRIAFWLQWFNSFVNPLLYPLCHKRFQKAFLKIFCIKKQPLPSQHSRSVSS

Regarding `Cc1[nH]cnc1CCN` [4-methylhistamine, 2-(5-methyl-1H-imidazol-4-yl)ethan-1-amine, reference compound], in series [1] (H4R, displacement of 4 nM [3H]histamine, pre-irradiated at 560 nm (5 min for VUF25678)), the “pKi +560 nm” value is on record as 7.2 ± 0.1 (3).
`CCC1=C(C)C2=C(COC(=O)N3CCC(Cc4c[nH]cn4)CC3)c3c(C)c(CC)c(C)n3[B-](F)(F)[N+]2=C1C` [VUF25657, (2,8-Diethyl-5,5-difluoro-1,3,7,9-tetramethyl-5H-4λ^4,5λ^4-dipyrrolo [1,2-c:2′,1′-f][1,3,2]diazaborinin-10-yl)methyl 4-((1H-imidazol-4-yl)methyl)piperidine-1-carboxylate] registered a melting point of 148.7 to 150.7 °C. For the same compound, the solubility in series [2] worked out at 3.2 µM (≈ 1.68 µg/mL). For the same compound, in series [3], the “absorption maximum (λmax)” value came to 551 nm. Moreover, in series [4] (setting [8]), the “concentration of immepip released” value worked out at 920 nM and the uncaging efficiency worked out at 29%. The “concentration of immepip released” value in series [4] (illumination at 560 nm, at 20 min) is 530 nM. For the same compound, the Ki in series [5] (H3R, displacement of 2 nM [3H]NAMH, compound kept in dark (caged state), read-out: pKi In Dark (converted)) was 50.1 nM. In addition, the “decrease in affinity for H3R compared with immepip” value in series [5] (caged state (dark) vs parent immepip) is 125 fold. Also, the “increase in H3R affinity after illumination in comparison to caged state” value in series [5] (illumination at 560 nm vs dark) is on record as 12 fold. In series [6] (caged state (dark) vs parent immepip, listed as 5 (VUF25657)), the “decrease in potency of cAMP inhibition compared with immepip” value was greater than 100 fold. Further, the EC50 in series [6] (kept in dark, read-out: pEC50 In Dark (converted)) is 10 nM. Besides, the “higher potency of cAMP inhibition after irradiation than caged state” value in series [6] (irradiation at 560 nm vs dark) is listed as 20 fold.
As for `CCC1=C(C)C2=C(COC(=O)NCCc3nc[nH]c3C)c3c(C)c(CC)c(C)n3[B-](F)(F)[N+]2=C1C` [VUF25678, (2,8-Diethyl-5,5-difluoro-1,3,7,9-tetramethyl-5H-4λ^4,5λ^4-dipyrrolo [1,2-c:2′,1′-f][1,3,2]diazaborinin-10-yl)methyl (2-(5-methyl-1H-imidazol-4-yl)ethyl)carbamate], the melting point was 108.8 to 116.3 °C. For the same compound, the “reduction in affinity for H4R on caging” value in series [1] (caged compound vs parent 4-methylhistamine) is listed as 10–100 fold. Further, in series [2], the solubility was 3.2 µM (≈ 1.55 µg/mL). In addition, the “absorption maximum (λmax)” value in series [3] came to 546 nm.
On to `CNCCc1cnc[nH]1` [[^3H]NAMH, N-α-[methyl-^3H] histamine], for which the Kd in series [7] is 1.37 nM.
Take `c1nc(CC2CCNCC2)c[nH]1` [immepip, 4-((1H-imidazol-4-yl)methyl)piperidine, reference compound]: the “pKi In Dark” value in series [5] (H3R, displacement of 2 nM [3H]NAMH, compound kept in dark (caged state)) is 9.4 ± 0.2 (4). Moreover, the “pKi +560 nm” value in series [5] (H3R, displacement of 2 nM [3H]NAMH, pre-irradiated at 560 nm (3 min for VUF25657)) is 9.4 ± 0.3 (4). The EC50 in series [6] (pEC50 +560 nm, pre-irradiated at 560 nm for 3 min) was 0.0631 nM; in series [6] (pEC50 In Dark, kept in dark), 0.0316 nM.
